Structures can show the parent of a compound that is named as a salt.
Experiments:
human H4 = target: T1, human H4 (Homo sapiens, UniProt Q9H3N8); experiment: In vitro histamine receptor cell-based assay (aequorin bioluminescence), H4 antagonism; details: CHO-K1 cells expressing human H4, aequorin and Gα16; histamine at EC80; read-out: H4 Antagonist EC50
T1 construct: host or cells: CHO-K1
Description: (§1) The cell-based assays utilize an aequorin dependent bioluminescence signal. Doubly-transfected, stable CHO-K1 cell lines expressing human H1 or H4, mitochondrion-targeted aequorin, and (H4 only) human G protein Gα16 are obtained from Perkin-Elmer. Cells are maintained in F12 (Ham's) growth medium, containing 10% (vol./vol.) fetal bovine serum, penicillin (100 IU/mL), streptomycin (0.1 mg/mL), zeocin (0.25 mg/mL) and geneticin (0.40 mg/mL). Cell media components are from Invitrogen, Inc. One day prior to assay, the growth medium is replaced with the same, excluding zeocin and geneticin.
(§2) For assay preparation, growth medium is aspirated, and cells are rinsed with calcium-free, magnesium-free phosphate-buffered saline, followed by two to three minute incubation in Versene (Invitrogen, Inc.) at 37° C. Assay medium (DMEM:F12 [50:50], phenol-red free, containing 1 mg/mL protease-free bovine serum albumin) is added to collect the released cells, which are then centrifuged. The cell pellet is re-suspended in assay medium, centrifuged once more, and re-suspended in assay medium to a final density of 5×10^6 cells/mL. Coelenterazine-h dye (500 μM in ethanol) is added to a final concentration of 5 μM, and mixed immediately. The conical tube containing the cells is then wrapped with foil to protect the light-sensitive dye. The cells are incubated for four hours further at room temperature (approximately 21° C.) with end-over-end rotation to keep them in suspension.
Just before assay, the dye-loaded cells are diluted to 0.75×10^6 cells/mL (H1 receptor) or 1.5×10^6 cells/mL (H4 receptor) with additional assay medium. Cells are dispensed to 1536 well micro-titer plates at 3 μL/well. To assay receptor antagonism, 60 nl of 100× concentration test compounds in 100% dimethyl sulfoxide (DMSO) are dispensed to the wells, one compound per well, by passive pin transfer, and the plates are incubated for 15 minutes at room temperature. […] The pipette dispenses 3 μL/well of agonist (histamine, at twice the final concentration, where final concentration is a previously determined EC80) in assay medium, with concurrent bioluminescence detection. Agonist activity of test compounds is excluded by separate assays that measure response to test compounds immediately, without added histamine agonist.
(§3) CCD image capture on the Lumilux includes a 5 second baseline read prior to agonist addition, and generally a 40 second read per plate after agonist addition. A decrease in bioluminescence signal (measured either as area-under-the-curve, or maximum signal amplitude minus minimum signal amplitude) correlates with receptor antagonism in a dose dependent manner. The negative control is DMSO lacking any test compound. For antagonist assays, the positive controls are diphenhydramine (2-Diphenylmethoxy-N,N-dimethylethylamine, 10 μM final concentration, H1 receptor) or JNJ7777120 (1-[(5-Chloro-1H-indol-2-yl)carbonyl]-4-methyl-piperazine, 10 μM final concentration, H4 receptor). Efficacy is measured as a percentage of positive control activity.

human H1 = target: T2, human H1 (Homo sapiens, UniProt P35367); experiment: In vitro histamine receptor cell-based assay (aequorin bioluminescence), H1 antagonism; details: CHO-K1 cells expressing human H1 and aequorin; histamine at EC80; read-out: H1 Antagonist EC50
T2 construct: host or cells: CHO-K1
T2 sequence (P35367 whole entry): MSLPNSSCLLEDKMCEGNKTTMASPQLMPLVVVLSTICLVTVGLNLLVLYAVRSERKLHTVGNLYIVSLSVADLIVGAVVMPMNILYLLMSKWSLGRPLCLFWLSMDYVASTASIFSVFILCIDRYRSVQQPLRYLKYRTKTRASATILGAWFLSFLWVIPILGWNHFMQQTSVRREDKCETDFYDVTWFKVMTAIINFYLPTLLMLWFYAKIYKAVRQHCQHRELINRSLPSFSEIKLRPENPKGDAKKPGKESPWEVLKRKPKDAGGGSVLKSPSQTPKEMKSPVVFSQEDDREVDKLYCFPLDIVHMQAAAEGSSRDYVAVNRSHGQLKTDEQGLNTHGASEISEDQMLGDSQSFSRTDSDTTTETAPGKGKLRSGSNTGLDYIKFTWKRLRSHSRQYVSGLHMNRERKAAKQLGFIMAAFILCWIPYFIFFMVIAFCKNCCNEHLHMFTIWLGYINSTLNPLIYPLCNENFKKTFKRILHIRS
Description: as §1, §2
Just before assay, the dye-loaded cells are diluted to 0.75×10^6 cells/mL (H1 receptor) or 1.5×10^6 cells/mL (H4 receptor) with additional assay medium. Cells are dispensed to 1536 well micro-titer plates at 3 μL/well. To assay receptor antagonism, 60 nl of 100× concentration test compounds in 100% dimethyl sulfoxide (DMSO) are dispensed to the wells, one compound per well, by passive pin transfer, and the plates are incubated for 15 minutes at room temperature. Assay plates are then transferred to a Lumilux bioluminescence plate reader (Perkin-Elmer) equipped with an automated 1536 disposable tip pipette. The pipette dispenses 3 μL/well of agonist (histamine, at twice the final concentration, where final concentration is a previously determined EC80) in assay medium, with concurrent bioluminescence detection. Agonist activity of test compounds is excluded by separate assays that measure response to test compounds immediately, without added histamine agonist.
as §3

T1 sequence (Q9H3N8 whole entry): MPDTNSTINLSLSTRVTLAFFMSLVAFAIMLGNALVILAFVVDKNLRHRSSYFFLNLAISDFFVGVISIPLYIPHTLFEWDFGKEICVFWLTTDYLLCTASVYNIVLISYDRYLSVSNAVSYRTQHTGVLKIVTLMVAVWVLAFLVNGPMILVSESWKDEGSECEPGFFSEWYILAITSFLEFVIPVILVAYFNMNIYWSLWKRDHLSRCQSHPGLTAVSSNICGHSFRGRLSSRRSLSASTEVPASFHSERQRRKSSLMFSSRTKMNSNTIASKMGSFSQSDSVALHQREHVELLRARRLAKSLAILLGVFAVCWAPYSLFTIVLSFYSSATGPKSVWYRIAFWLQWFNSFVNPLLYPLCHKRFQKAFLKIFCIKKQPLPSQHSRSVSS

Row | Structure (SMILES) | EC50 (human H4) [µM] | EC50 (human H1) [µM]
1 | Clc1ccc2nc(N3CC4CC3CN4)c3nncn3c2c1 (centres unmarked) [Example 67, 4-(2,5-diazabicyclo[2.2.1]heptan-2-yl)-8-chloro-[1,2,4]triazolo[4,3-a]quinoxaline] | < 10 | > 10
2 | Cc1nc2c3ccc(Cl)cc3nc(N3CCN(C)CC3)n2n1 [Example 105, 8-Chloro-2-methyl-5-(4-methylpiperazin-1-yl)-[1,2,4]triazolo[1,5-c]quinazoline] | < 10 | > 10
3 | Cc1nc2c(N3CCN(C)CC3)nc3ccc(C(F)(F)F)cc3c2o1 [Example 214, 2-methyl-4-(4-methylpiperazin-1-yl)-8-(trifluoromethyl)oxazolo[4,5-c]quinoline] | < 10 | > 10
4 | CN1CCN(c2nc3cc(Br)ccc3n3cnnc23)CC1 [Example 193, 7-bromo-4-(4-methylpiperazin-1-yl)-[1,2,4]triazolo[4,3-a]quinoxaline] | < 10 | > 10
5 | CN1CCN(c2nc3c(F)cc(Cl)cc3n3cnnc23)CC1 [Example 197, 8-chloro-6-fluoro-4-(4-methylpiperazin-1-yl)-[1,2,4]triazolo[4,3-a]quinoxaline] | < 10 | > 10
6 | Fc1cc(Cl)cc2c1nc(N1CCNCC1)c1nncn12 [Example 196, 8-chloro-6-fluoro-4-(piperazin-1-yl)-[1,2,4]triazolo[4,3-a]quinoxaline] | < 10 | > 10
7 | C=Cc1ccc2nc(N3CCN(C)CC3)n3nc(C)nc3c2c1 [Example 137, 2-methyl-5-(4-methylpiperazin-1-yl)-9-vinyl-[1,2,4]triazolo[1,5-c]quinazoline] | < 10 | > 10
8 | CN(CCN)c1nc2ccc(Cl)cc2n2cnnc12 [Example 79, N^1-(8-chloro-[1,2,4]triazolo[4,3-a]quinoxalin-4-yl)-N-1-methylethane-1,2-diamine] | > 10 | > 10
9 | Clc1cc2nc(N3CCNCC3)c3nncn3c2cc1Cl [Example 168, 7,8-dichloro-4-(piperazin-1-yl)-[1,2,4]triazolo[4,3-a]quinoxaline] | < 10 | > 10
10 | CCc1ccc2nc(N3CCNCC3)c3nncn3c2c1 [Example 91, 8-ethyl-4-(piperazin-1-yl)-[1,2,4]triazolo[4,3-a]quinoxaline] | < 10 | > 10
11 | CN1CCN(c2nc3cc(C(F)(F)F)c(F)cc3n3cnnc23)CC1 [Example 42, 8-fluoro-4-(4-methylpiperazin-1-yl)-7-(trifluoromethyl)-[1,2,4]triazolo[4,3-a]quinoxaline] | < 10 | > 10
12 | COc1ccc2nc(N3CCNCC3)n3nc(C)nc3c2c1 [Example 102, 9-Methoxy-2-methyl-5-(piperazin-1-yl)-[1,2,4]triazolo[1,5-c]quinazoline] | > 10 | > 10
13 | Cc1nc2c3cc(C(F)(F)F)c(Cl)cc3nc(N3CCN(C)CC3)n2n1 [Example 122, 8-chloro-2-methyl-5-(4-methylpiperazin-1-yl)-9-(trifluoromethyl)-[1,2,4]triazolo[1,5-c]quinazoline] | < 10 | > 10
14 | Cc1nc2c(N3CCNCC3)nc3ccc(Cl)cc3c2o1 [Example 144, 8-chloro-2-methyl-4-(piperazin-1-yl)oxazolo[4,5-c]quinoline] | < 10 | > 10
15 | Fc1cc2nc(N3CCNCC3)c3nncn3c2cc1F [Example 38, 7,8-difluoro-4-(piperazin-1-yl)-[1,2,4]triazolo[4,3-a]quinoxaline] | < 10 | > 10
16 | CN1CCN(c2nc3cc(C(F)(F)F)c(F)cc3n3nnnc23)CC1 [Example 201, 8-fluoro-4-(4-methylpiperazin-1-yl)-7-(trifluoromethyl)tetrazolo[1,5-a]quinoxaline] | < 10 | > 10

Row | Structure (SMILES) | EC50 (human H4) [µM] | EC50 (human H1) [µM]
17 | CC(C)c1nc2c3cc(Cl)ccc3nc(N3CCN(C)CC3)n2n1 [Example 116, 9-Chloro-2-isopropyl-5-(4-methylpiperazin-1-yl)-[1,2,4]triazolo[1,5-c]quinazoline] | > 10 | > 10
18 | Fc1cc2c(cc1C(F)(F)F)nc(N1CCNCC1)c1nncn12 [Example 43, 8-Fluoro-4-(piperazin-1-yl)-7-(trifluoromethyl)-[1,2,4]triazolo[4,3-a]quinoxaline] | < 10 | > 10
19 | Cn1cc2c(n1)c(N1CC[N+](C)(C)CC1)nc1ccc(Cl)cc12 [Example 154, 4-(8-Chloro-2-methyl-2H-pyrazolo[3,4-c]quinolin-4-yl)-1,1-dimethylpiperazin-1-ium] | > 10 | > 10
20 | CN1CCN(c2nc3ccc(Cl)cc3c3ccoc23)CC1 [Example 147, 8-Chloro-4-(4-methylpiperazin-1-yl)furo[2,3-c]quinoline] | < 10 | > 10
21 | CN1CCN(c2nc3ccc(Br)cc3c3conc23)CC1 [Example 222, 8-bromo-4-(4-methylpiperazin-1-yl)isoxazolo[3,4-c]quinoline] | < 10 | > 10
22 | Fc1c(C(F)(F)F)ccc2nc(N3CCNCC3)c3nncn3c12 [Example 169, 9-fluoro-4-(piperazin-1-yl)-8-(trifluoromethyl)-[1,2,4]triazolo[4,3-a]quinoxaline] | < 10 | > 10
23 | FC(F)(F)c1ccc2nc(N3CCNCC3)c3nccn3c2c1 [Example 178, 4-(piperazin-1-yl)-8-(trifluoromethypimidazo[1,2-a]quinoxaline hydrochloride] | < 10 | > 10
24 | Cc1nc2c(N3CCNCC3)nc3ccc(Cl)cc3c2[nH]1 [Example 163, 8-Chloro-2-methyl-4-piperazinylimidazo[4,5-c]quinoline] | > 10 | > 10
25 | Clc1ccc2nc(N3CCNCC3)n3nnnc3c2c1 [Example 12, 9-Chloro-5-(piperazin-1-yl)tetrazolo[1,5-c]quinazoline] | < 10 | > 10
26 | Fc1cc2nc(N3CCNCC3)c3nccn3c2cc1Cl [Example 180, 8-chloro-7-fluoro-4-(piperazin-1-yl)imidazo[1,2-a]quinoxaline] | < 10 | < 10
27 | Cc1cn2c(n1)c(N1CCN(C)CC1)nc1ccc(Cl)cc12 [Example 9, 8-Chloro-2-methyl-4-(4-methylpiperazin-1-yl)imidazo[1,2-a]quinoxaline] | < 10 | > 10
28 | CCc1nc2c3cc(Cl)ccc3nc(N3CCN(C)CC3)n2n1 [Example 114, 9-Chloro-2-ethyl-5-(4-methylpiperazin-1-yl)-[1,2,4]triazolo[1,5-c]quinazoline] | < 10 | > 10
29 | CN1CCN(c2nc3c(F)cc(C(F)(F)F)cc3n3cnnc23)CC1 [Example 48, 6-Fluoro-4-(4-methylpiperazin-1-yl)-8-(trifluoromethyl)-[1,2,4]triazolo[4,3-a]quinoxaline] | < 10 | > 10
30 | Fc1cc2nc(N3CCNCC3)c3nnnn3c2cc1F [Example 191, 7,8-difluoro-4-(piperazin-1-yl)tetrazolo[1,5-a]quinoxaline] | < 10 | > 10
31 | NC1CN(c2nc3ccc(Cl)cc3n3cnnc23)C1 [Example 63, 1-(8-chloro-[1,2,4]triazolo[4,3-a]quinoxalin-4-yl)azetidin-3-amine] | < 10 | > 10

— US20120065187A1 (ALCON RESEARCH, LTD, priority 2008, published 2012)
